Results on six compounds are retold here after patent US20250236616A1, “IMMUNOMODULATING AZALIDES” (Zoetis Services LLC, priority 2021, published 2025).

The test system of one assay is M. haemolytica. Put plainly: MIC, M. haemolytica strains. The format is cell-based. The settings on record: Mannheimia haemolytica. The source says: (§1) Primary screening of the compounds of the invention included the evaluation of antibacterial activity of analogs through determination of microbial inhibition concentration (MIC) as per CLSI guidelines. The screening panel included the relevant BRD pathogens: 1) M. haemolytica (e.g., 12726, 46571 and 49023, all AHDRCC; and 33396 (ATCC)); and 2) P. multocida (e.g., 34135 and 46572 (both AHDRCC) and 43137 (ATCC)). In some instances, H. somni (A700025K) pathogens were also included in the screening panel. The AHDRCC strains originated from the Zoetis BRD/SRD surveillance program and refer to the Animal Health Development and Research Culture Collection. In addition, the screen assessed S. aureus (29213 ATCC) as a representative Gram-positive isolate, E.faecalis (19433 ATCC) as a commensal gram-positive gastrointestinal bacterium and E. coli (100, 3110 and 25922 (ATCC)) for the evaluation of efflux potential. The screening panel BRD pathogens were assessed in determining antibacterial activity of the Formula (1) compounds.
(§2) All relevant BRD pathogens were initially screened at a top concentration of 64 μg/mL of a Formula (1) compound in an eleven-point dilution series. […] If an Example was purified further, the MICs moved […] essentially two dilutions across all strains tested in the screening panel.
(§3) In-Vitro MIC Model Compounds were analyzed for antibacterial activity against a panel of animal health specific gram-positive and gram-negative clinical strains by diluting compounds in DMSO to an appropriate stock concentration to determine the Minimal Inhibitory Concentration (MIC) via a semi-automated broth micro-dilution method (CLSI reference method) with QC strains and anti-microbial agent(s). Specifically, bacteria were grown overnight on TSA w/5% sheep blood agar plates and diluted in saline buffer to a McFarland Standard 0.5, then further diluted in cation-ion adjusted Mueller Hinton Broth to a final concentration of approximately 5×10^5 CFU/mL. 100 μL of inoculated media was added to 96-well plate(s) with 3 μL of serially diluted compound in each row. Depending on strain (see CLSI reference method), bacteria were incubated 18-22 hours at 35-37° C. in ambient air, with 5% CO2 or anaerobically (up to 48 hours).

The test system of a further assay is E. coli. In words: MIC, E. coli. The settings on record: Escherichia coli. Format: cell-based.
Description: as §1, §2, §3

A further assay concerns P. multocida 46572. In words: In vivo mouse lung infection challenge model (murine efficacy), survival. Conditions: 20 mg/kg subcutaneous; for % Survival: P. multocida 46572 intranasal challenge, harmonized relative to vehicle (−) and M9 (+) controls. On the set-up: species or system CD-1 female mice. The procedure: The challenge organism was P. multocida 46572. Target challenge concentration was 5×10^2 CFU/mouse. Isolated colonies from overnight growth (37° C. with 5% CO2) on trypticase soy agar (TSA II) blood plates were transferred to room temperature Brain Heart Infusion Broth (BHIB). The broth culture was incubated 3.5-4 hours to approximately mid-log phase of growth, as measured by forward light scatter at 600 nm (OD600, 0.200). The culture was centrifuged to collect the bacterial pellet. The pellet was re-suspended in BHIB and adjusted to provide an approximate concentration of 2.7 log 10 colony forming units (CFU) in 0.04 mL at the highest concentration. The challenge inoculum concentration was confirmed by serial dilutions of the inoculum for CFU enumeration. On Day −5, CD −1 female mice were received. Mice were given standard rodent diet and water ad libitum. On Day 0, bacterial inoculum (0.04 mL) was administered to each mouse (n=36) intranasally. Compounds of the invention were dosed at 20 mg/kg (0.1 mL) in a buffered (˜pH 5.4) propylene glycol, monothioglycerol and water solution by subcutaneous injection. Animals were observed from Days 1-10. The study was terminated on Day 10. In addition, some treatment groups were sampled at 6, 24, and 48 hours post bacterial challenge for RNA sequence analysis of lung tissue.
The murine efficacy model (P.multocida challenge) was optimized, and the treatment group size was powered to be able to observe statistically significant improvement of survival to expected ranges for immunomodulatory compounds. The experimental design was a randomized complete block design. Mice were individually identified and treatment groups comingled within a cage, with every treatment group equally represented across cages. Mortality was the primary variable. Mortality data was analyzed using a generalized mixed model with fixed effect of treatment and random effect of block. Survival time was also analyzed using the SAS PHREG (survival analysis) procedure to examine whether there were significant differences between treatment groups and the control group. Numerous compounds of the invention and M9 (positive control) were tested in this model at a dose of 20 mg/kg (Table 3). Typical percent survival for no treatment control is in the range of 0-20% based on study to study variation in challenge inoculum and rate of infection. […] Mouse survival for M9 was about 90-100%, further supporting its residual antibacterial properties against the bacterial strain.

Setting [1] is: M. haemolytica 46571, bovine efficacy challenge strain.

≈ marks a conversion by molar mass, not a printed value.

For `CC[C@H]1OC(=O)[C@H](C)[C@@H](O)[C@H](C)[C@@H](O[C@@H]2O[C@H](C)C[C@H](N(C)S(=O)(=O)c3ccccc3)[C@H]2Oc2ccc(OC)cc2)[C@](C)(O)C[C@@H](C)CN[C@H](C)[C@@H](O)[C@]1(C)O` [Example A-9, N-((2S,3R,4S,6R)-2-(((2R,3S,4R,5R,8R,10R,11R,12S,13S,14R)-2-ethyl-3,4,10,13-tetrahydroxy-3,5,8,10, 12, 14-hexamethyl-15-oxo-1-oxa-6-azacyclopentadecan-11-yl)oxy)-3-(4-methoxyphenoxy)-6-methyltetrahydro-2H-pyran-4-yl)-N-methylbenzenesulfonamide], the MIC with M. haemolytica (M. haemolytica 12726), against M. haemolytica (M. haemolytica 33396), against M. haemolytica (setting [1]), in the assay on E. coli (E. coli 25922) and against E. coli (E. coli W3110) was above 64 µg/mL in each case. The “% Survival” value in the assay with P. multocida 46572 came out at 41%.
For the compound `CCCNC[C@]1(O)[C@H](C)O[C@@H](O[C@H]2[C@H](C)[C@@H](O[C@@H]3O[C@H](C)C[C@H](N(C)S(=O)(=O)c4ccc(C)cc4)[C@H]3O)[C@](C)(O)C[C@@H](C)CN[C@H](C)[C@@H](O)[C@](C)(O)[C@@H](CC)OC(=O)[C@@H]2C)C[C@@]1(C)OC` [Example B-26, N-((2S,3R,4S,6R)-2-(((2R,3S,4R,5R,8R,10R,11R,12S,13S,14R)-2-ethyl-3,4,10-trihydroxy-13-(((2R,4R,5S,6S)-5-hydroxy-4-methoxy-4,6-dimethyl-5-((propylamino)methyl)tetrahydro-2H-pyran-2-yl)oxy)-3,5,8,10,12,14-hexamethyl-15-oxo-1-oxa-6-azacyclopentadecan-11-yl)oxy)-3-hydroxy-6-methyltetrahydro-2H-pyran-4-yl)-N,4-dimethylbenzenesulfonamide], the minimum inhibitory concentration (MIC) in the assay with M. haemolytica (M. haemolytica 12726), in the assay with M. haemolytica (M. haemolytica 33396), against M. haemolytica (setting [1]), against E. coli (E. coli 25922) and with E. coli (E. coli W3110) was above 64 µg/mL throughout. Also, the “% Survival” value with P. multocida 46572 stood at 37%.
`CCCNC[C@]1(O)[C@H](C)O[C@@H](O[C@H]2[C@H](C)[C@@H](O[C@@H]3O[C@H](C)C[C@H](N(C)S(=O)(=O)Nc4ccc(C(F)(F)F)cc4)[C@H]3O)[C@](C)(O)C[C@@H](C)CN[C@H](C)[C@@H](O)[C@](C)(O)[C@@H](CC)OC(=O)[C@@H]2C)C[C@@]1(C)OC` [Example B-50, (2R,3S,4R,5R,8R,10R,11R,12S,13S, 14R)-2-ethyl-3,4,10-trihydroxy-13-[(2R,4R,5S,6S)-5-hydroxy-4-methoxy-4,6-dimethyl-5-(propylaminomethyl)oxan-2-yl]oxy-11-[(2S,3R,4S,6R)-3-hydroxy-6-methyl-4-[methyl-[[4-(trifluoromethyl)phenyl]sulfamoyl]amino]oxan-2-yl]oxy-3,5,8, 10, 12, 14-hexamethyl-15-oxo-1-oxa-6-azacyclopentadecane]: the MIC against M. haemolytica (M. haemolytica 12726), against M. haemolytica (M. haemolytica 33396), against M. haemolytica (setting [1]), in the assay with E. coli (E. coli 25922) and against E. coli (E. coli W3110) was above 64 µg/mL each time. Moreover, the “% Survival” value in the assay on P. multocida 46572 turned out to be 88%.
With `CC[C@H]1OC(=O)[C@H](C)[C@@H](O[C@H]2C[C@@](C)(OC)[C@](O)(CN3CCCCC3)[C@H](C)O2)[C@H](C)[C@@H](O[C@@H]2O[C@H](C)C[C@H](N(C)S(=O)(=O)c3ccc(Cl)cc3)[C@H]2O)[C@](C)(O)C[C@@H](C)CN[C@H](C)[C@@H](O)[C@]1(C)O` [Example C-4, 4-chloro-N-((2S,3R,4S,6R)-2-(((2R,3S,4R,5R,8R,10R,11R,12S,13S,14R)-2-ethyl-3,4,10-trihydroxy-13-(((2R,4R,5S,6S)-5-hydroxy-4-methoxy-4,6-dimethyl-5-(piperidin-1-ylmethyl)tetrahydro-2H-pyran-2-yl)oxy)-3,5,8, 10, 12, 14-hexamethyl-15-oxo-1-oxa-6-azacyclopentadecan-11-yl)oxy)-3-hydroxy-6-methyltetrahydro-2H-pyran-4-yl)-N-methylbenzenesulfonamide], the MIC in the assay with M. haemolytica (M. haemolytica 12726), against M. haemolytica (M. haemolytica 33396), in the assay on M. haemolytica (setting [1]), with E. coli (E. coli 25922) and in the assay with E. coli (E. coli W3110) was above 128 µg/mL in each case. In addition, in the assay with P. multocida 46572, the “% Survival” value came to 76%.
As to `CC[C@H]1OC(=O)[C@H](C)[C@@H](O[C@H]2C[C@@](C)(OC)[C@](O)(CN3CCCCC3)[C@H](C)O2)[C@H](C)[C@@H](O[C@@H]2O[C@H](C)C[C@H](N(C)S(=O)(=O)Nc3ccc(C(F)(F)F)cc3)[C@H]2O)[C@](C)(O)C[C@@H](C)CN[C@H](C)[C@@H](O)[C@]1(C)O` [Example C-11, (2R,3S,4R,5R,8R,10R,11R,12S, 13S, 14R)-2-ethyl-3,4, 10-trihydroxy-13-[(2R,4R,5S,6S)-5-hydroxy-4-methoxy-4,6-dimethyl-5-(piperidin-1-ylmethyl)oxan-2-yl]oxy-11-[(2S,3R,4S,6R)-3-hydroxy-6-methyl-4-[methyl-[[4-(trifluoromethyl)phenyl]sulfamoyl]amino]oxan-2-yl]oxy-3,5,8, 10, 12, 14-hexamethyl-15-oxo-1-oxa-6-azacyclopentadecane], the minimal inhibitory concentration (MIC) in the assay on M. haemolytica (M. haemolytica 12726), against M. haemolytica (M. haemolytica 33396), with M. haemolytica (setting [1]), in the assay with E. coli (E. coli 25922) and against E. coli (E. coli W3110) was above 64 µg/mL in each case. Besides, in the assay on P. multocida 46572, the “% Survival” value is reported as 56%.
As for `CCCNC[C@]1(O)[C@H](C)O[C@@H](O[C@H]2[C@H](C)[C@@H](O[C@@H]3O[C@H](C)C[C@H](NC)[C@H]3O)[C@](C)(O)C[C@@H](C)CN[C@H](C)[C@@H](O)[C@](C)(O)[C@@H](CC)OC(=O)[C@@H]2C)C[C@@]1(C)OC` [Example M9, (2R,3S,4R,5R,8R,10R,11R,12S,13S,14R)-2-ethyl-3,4, 10-trihydroxy-13-(((2R,4R,5S,6S)-5-hydroxy-4-methoxy-4,6-dimethyl-5-((propylamino)methyl)-tetrahydro-2H-pyran-2-yl)oxy)-11-(((2S,3R,4S,6R)-3-hydroxy-6-methyl-4-(methylamino)tetrahydro-2H-pyran-2-yl)oxy)-3,5,8,10,12,14-hexamethyl-1-oxa-6-azacyclopentadecan-15-one], the MIC is 22 µg/mL (≈ 27.8 µM) against M. haemolytica (M. haemolytica 12726), above 64 µg/mL in the assay on E. coli (E. coli 25922) and 64 µg/mL (≈ 80.8 µM) against E. coli (E. coli W3110). Further, in the assay with P. multocida 46572 (M9 positive control), the Mouse survival was 90-100%.
